# Assay results as given in patent US11572590B2, “Methods for evaluating tumor cell spheroids using 3D microfluidic cell culture device” (Dana-Farber Cancer Institute, Inc., priority 2017, dated 2023).
# Like-named read-outs stand apart in the source and are kept apart here.
# Experiments:
# Experiment in all cases: SelectScreen Kinase Profiling, single point inhibition and IC50 for off-target kinases
# Assay type in all cases: biochemical
# off-target kinases [1] = target: T1, off-target kinases (Homo sapiens, UniProt Q99759); conditions: MAP3K3 (MEKK3), LanthaScreen Binding
# T1 sequence (Q99759 1-626): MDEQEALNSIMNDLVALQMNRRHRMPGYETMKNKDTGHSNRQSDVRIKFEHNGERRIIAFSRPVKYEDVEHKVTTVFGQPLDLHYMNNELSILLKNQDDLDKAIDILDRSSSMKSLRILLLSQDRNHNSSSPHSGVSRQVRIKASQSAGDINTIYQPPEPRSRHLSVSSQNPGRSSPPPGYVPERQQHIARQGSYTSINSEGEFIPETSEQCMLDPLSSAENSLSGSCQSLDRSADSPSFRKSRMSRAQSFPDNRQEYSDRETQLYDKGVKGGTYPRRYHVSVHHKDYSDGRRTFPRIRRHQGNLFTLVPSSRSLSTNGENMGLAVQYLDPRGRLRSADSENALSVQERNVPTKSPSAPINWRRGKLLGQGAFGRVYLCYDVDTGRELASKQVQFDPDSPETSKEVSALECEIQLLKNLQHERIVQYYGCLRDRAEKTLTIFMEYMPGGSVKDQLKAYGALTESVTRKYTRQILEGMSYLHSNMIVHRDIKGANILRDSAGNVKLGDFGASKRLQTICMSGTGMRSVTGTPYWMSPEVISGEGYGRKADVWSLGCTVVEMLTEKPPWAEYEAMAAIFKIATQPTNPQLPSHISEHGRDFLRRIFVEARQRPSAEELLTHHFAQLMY
# off-target kinases [2] = target: off-target kinases (Homo sapiens, UniProt P53667); conditions: LIMK1, LanthaScreen Binding
# off-target kinases [3] = target: off-target kinases (Homo sapiens, UniProt Q86UE8); conditions: TLK2, LanthaScreen Binding
# off-target kinases [4] = target: off-target kinases (Homo sapiens, UniProt Q04912); conditions: MST1R (RON), ZLYTE, ATP Km app
# Sequence of off-target kinases (Homo sapiens, UniProt Q04912) (Q04912 25-1400): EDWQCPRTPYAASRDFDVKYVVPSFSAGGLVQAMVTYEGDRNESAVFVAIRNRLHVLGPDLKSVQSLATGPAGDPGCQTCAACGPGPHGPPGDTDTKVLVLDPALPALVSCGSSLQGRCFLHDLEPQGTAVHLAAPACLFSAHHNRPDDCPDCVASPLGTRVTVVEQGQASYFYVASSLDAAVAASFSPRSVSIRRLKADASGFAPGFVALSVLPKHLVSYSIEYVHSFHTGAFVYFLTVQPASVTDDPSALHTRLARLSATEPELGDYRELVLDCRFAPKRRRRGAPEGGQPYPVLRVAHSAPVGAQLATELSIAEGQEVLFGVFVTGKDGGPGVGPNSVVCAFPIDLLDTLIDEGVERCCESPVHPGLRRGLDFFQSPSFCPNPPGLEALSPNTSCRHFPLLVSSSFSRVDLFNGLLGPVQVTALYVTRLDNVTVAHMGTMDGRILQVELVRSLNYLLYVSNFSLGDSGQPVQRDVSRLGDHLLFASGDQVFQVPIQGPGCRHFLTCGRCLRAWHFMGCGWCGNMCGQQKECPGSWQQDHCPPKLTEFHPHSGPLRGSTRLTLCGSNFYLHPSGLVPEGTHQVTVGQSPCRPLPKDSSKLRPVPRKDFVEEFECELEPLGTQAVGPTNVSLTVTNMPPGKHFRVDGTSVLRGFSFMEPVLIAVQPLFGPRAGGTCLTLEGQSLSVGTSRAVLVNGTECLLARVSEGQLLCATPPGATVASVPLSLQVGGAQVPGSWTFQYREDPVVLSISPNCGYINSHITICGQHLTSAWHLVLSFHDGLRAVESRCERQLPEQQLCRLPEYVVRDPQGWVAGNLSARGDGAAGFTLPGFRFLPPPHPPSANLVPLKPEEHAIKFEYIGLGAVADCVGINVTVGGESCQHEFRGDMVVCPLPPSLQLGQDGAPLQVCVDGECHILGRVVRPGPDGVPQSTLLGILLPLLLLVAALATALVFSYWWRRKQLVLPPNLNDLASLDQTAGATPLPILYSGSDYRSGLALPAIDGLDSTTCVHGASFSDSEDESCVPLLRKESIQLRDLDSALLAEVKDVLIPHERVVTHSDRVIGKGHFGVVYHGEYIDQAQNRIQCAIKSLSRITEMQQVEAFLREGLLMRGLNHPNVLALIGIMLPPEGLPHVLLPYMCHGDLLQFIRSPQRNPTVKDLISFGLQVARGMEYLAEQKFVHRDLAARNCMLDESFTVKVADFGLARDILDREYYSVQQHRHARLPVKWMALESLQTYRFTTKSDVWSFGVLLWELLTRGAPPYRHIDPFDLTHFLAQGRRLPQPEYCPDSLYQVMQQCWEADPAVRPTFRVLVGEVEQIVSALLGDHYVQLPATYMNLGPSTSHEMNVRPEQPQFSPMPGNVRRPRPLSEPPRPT
# Sequence of off-target kinases (Homo sapiens, UniProt Q86UE8) (Q86UE8 whole entry): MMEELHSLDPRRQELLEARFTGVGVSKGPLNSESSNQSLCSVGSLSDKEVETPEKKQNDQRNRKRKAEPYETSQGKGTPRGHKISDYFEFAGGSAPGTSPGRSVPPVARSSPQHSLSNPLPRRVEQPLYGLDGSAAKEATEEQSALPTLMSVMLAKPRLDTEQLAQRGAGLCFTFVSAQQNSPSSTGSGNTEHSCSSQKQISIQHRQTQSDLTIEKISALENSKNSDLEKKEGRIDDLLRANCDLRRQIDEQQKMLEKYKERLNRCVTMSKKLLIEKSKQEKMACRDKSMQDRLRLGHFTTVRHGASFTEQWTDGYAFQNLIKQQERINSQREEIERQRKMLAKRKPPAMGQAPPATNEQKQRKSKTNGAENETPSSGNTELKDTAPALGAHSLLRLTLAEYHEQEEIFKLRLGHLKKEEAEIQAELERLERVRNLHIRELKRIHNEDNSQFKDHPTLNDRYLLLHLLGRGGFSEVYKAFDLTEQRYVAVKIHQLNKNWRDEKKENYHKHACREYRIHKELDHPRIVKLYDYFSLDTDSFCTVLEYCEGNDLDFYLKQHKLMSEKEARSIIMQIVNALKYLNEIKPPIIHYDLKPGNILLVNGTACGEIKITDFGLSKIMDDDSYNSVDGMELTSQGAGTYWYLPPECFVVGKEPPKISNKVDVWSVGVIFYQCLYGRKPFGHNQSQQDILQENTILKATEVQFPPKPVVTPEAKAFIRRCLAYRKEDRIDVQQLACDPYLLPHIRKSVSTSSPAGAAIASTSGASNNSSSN
# Sequence of off-target kinases (Homo sapiens, UniProt P53667) (P53667 whole entry): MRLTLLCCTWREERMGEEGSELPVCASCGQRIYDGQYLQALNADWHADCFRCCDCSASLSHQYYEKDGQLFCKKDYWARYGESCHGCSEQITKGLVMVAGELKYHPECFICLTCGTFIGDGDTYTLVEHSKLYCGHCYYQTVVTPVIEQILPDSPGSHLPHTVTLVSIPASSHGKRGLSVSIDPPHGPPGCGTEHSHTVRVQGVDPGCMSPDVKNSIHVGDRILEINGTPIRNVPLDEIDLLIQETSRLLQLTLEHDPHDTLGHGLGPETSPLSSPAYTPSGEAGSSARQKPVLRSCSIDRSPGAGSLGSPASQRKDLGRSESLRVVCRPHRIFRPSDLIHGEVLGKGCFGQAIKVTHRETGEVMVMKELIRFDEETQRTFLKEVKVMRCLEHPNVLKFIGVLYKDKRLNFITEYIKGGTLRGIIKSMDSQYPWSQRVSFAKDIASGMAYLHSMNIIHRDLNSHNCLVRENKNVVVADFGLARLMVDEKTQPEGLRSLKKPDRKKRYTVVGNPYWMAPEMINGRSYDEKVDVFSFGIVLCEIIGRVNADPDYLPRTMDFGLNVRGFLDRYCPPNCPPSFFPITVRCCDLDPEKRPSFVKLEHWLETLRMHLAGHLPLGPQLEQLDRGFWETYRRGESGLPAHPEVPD
smiles,measurement,setting,value
"N#Cc1cc(-c2ncnc(Nc3ccc(N4CCN(C5COC5)CC4)cc3)n2)ccc1OC1CCOCC1 [Compound 1, 5-(4-((4-(4-(oxetan-3-yl)piperazin-1-yl)phenyl)amino)-1,3,5-triazin-2-yl)-2-((tetrahydro-2H-pyran-4-yl)oxy)benzonitrile]",inhibition,off-target kinases [1]; read-out: % Inhibition 1,10%
same,inhibition,off-target kinases [1]; read-out: % Inhibition 2,13%
same,inhibition,off-target kinases [1]; read-out: % Inhibition Avg,12%
same,inhibition,off-target kinases [2]; read-out: % Inhibition 1,40%
same,inhibition,off-target kinases [2]; read-out: % Inhibition 2,39%
same,inhibition,off-target kinases [2]; read-out: % Inhibition Avg,40%
same,inhibition,off-target kinases [3]; read-out: % Inhibition 1,84%
same,inhibition,off-target kinases [3]; read-out: % Inhibition 2,81%
same,inhibition,off-target kinases [3]; read-out: % Inhibition Avg,83%
same,inhibition,off-target kinases [4]; read-out: % Inhibition 1,38%
same,inhibition,off-target kinases [4]; read-out: % Inhibition 2,38%
same,inhibition,off-target kinases [4]; read-out: % Inhibition Avg,38%
